{
  "source": "patent US20180353445A1",
  "about": "“METHODS AND COMPOSITIONS RELATING TO PROTEASOME INHIBITOR RESISTANCE” (Whitehead Institute for Biomedical Research, priority 2017, published 2018)",
  "format_in_all_cases": "cell-based, human",
  "key": {"[1]": {"system": "T47D cells", "test": "Drug library screen (Selleck anti-cancer, NPC, NIH bioactive), PSMD2 KD vs control T47D cells", "conditions": "for growth inhibition of T47D cells with reduced level of PSMD2 vs control T47D cells: Selleck anti-cancer compound library screen", "description": "Schematic representation of the drug screen setup. (FIG. 37A) 147D cells harboring a doxycycline-inducible PSMD2 shRNA were grown in the presence or absence of doxycycline for 48 hr. Cells were then collected, washed, and plated in the absence of doxycycline for 24 hr prior to exposure different compounds. Relative cell numbers were measured 3 days later.\nThe relative viability of the Lo19S versus control cells was calculated for replica experiments and the log2 of the ratio is plotted. […] The relative viability of the respiring cells (Hi-OXPHOS) (gal) versus the control cells (glu) was calculated for replica experiments and the log2 of the ratio is plotted.\nAfter 48 hours the cells were collected, counted, and plated at 1000 cells/well in 384 well plates in duplicates for each cell line. Compounds from the Selleck Chemicals anti-cancer compound library (349 drugs in 4 concentrations; […]) were pinned the next day and viability was measured after 72 hours by the reduction of Resazurin (Ex=530 run, Em=590nin). (See FIG. 37A for schematic of screen.)"}, "[2]": {"system": "T47D cells harboring a doxycycline inducible PSMD2 KD shRNA construct", "test": "Viability of PSMD2 knockdown versus control T47D cells, dose response and combinations (CellTiter-Glo)", "conditions": "for sensitivity of PSMD2 KD cells versus control cells (cell viability): 1 ug/ml doxycycline 72 h, viability 72 hours after addition, CellTiter-Glo", "description": "Cell viability was measured by CellTiter-Glot Luminescent Cell Viability Assay 72 hours after addition of the compounds to cells.\nCell viability was measured by CellTiter-Glo® Luminescent Cell Viability Assay 72 hours after addition of the compounds were added to cells.\nCell viability was measured by CellTiter-Glolk Luminescent Cell Viability Assay 72 hours after addition of the compounds to cells.\nTo directly test whether altered cellular metabolism can modulate the sensitivity of cancer cells to proteasome inhibitors, we engineered the breast cancer cell line T47D into Lo19S and increased OXPHOS states. Initially, we reconstituted the Lo19S state by transient suppression of the PSMD2 subunit of the 19S complex using an inducible shRNA.\nTo induce a high OXPHOS (Hi-OXPHOS) state, we changed the carbon source in the cell culture media from glucose to galactose, which is poorly fermentable. This method has been previously shown to drive glutamine utilization by mitochondria and to thus increase mitochondrial respiration (Gohil et al., 2010). […] We reasoned that the Hi-OXPHOS signature we identified in Lo19S patient tumors may cooperate with the Lo19S state to further promote the ability of the cells to withstand proteotoxic stress.\nCell viability—where indicated relative cell number following different drug treatment was conducted by plating cells at 1000 cells/well in 384 well plates. Indicated concentrations of compounds were added 24 hour after plating at least in triplicate for each condition. Viability was measured 72 hours after drug addition using cell titer-glo (Promega) according to manufactures protocol. Same protocol was applied for the experiments conducted for the Lo19S T47D, MCF7 and T47D in the context of altered carbon source only the cells were plated at 1000 cells/well in RPMI media (without glucose and with dialyzed serum) containing either 10 mM Glucose or lOmM galactose."}, "[3]": {"system": "HepG2 cells", "test": "RNA-seq gene expression profiling, PSMD2 knockdown and control cells", "conditions": "control cells", "description": "FIGS. 3A-3E: Inhibition of bortezomib-mediated transcriptional responses in PSMD2 knockdown cells. RNA-seq gene expression profiling was conducted on cells that harbor two different shRNAs targeting PSMD2 (PSMD2-1, PSMD2-2) and on control cells (shLacZ). The effects of reducing PSMD2 levels on gene expression were highly correlated in both basal conditions (Pearson's r=0.99) and following bortezomib treatment (Pearson's r=0.94). […] Enrichment was calculated for the indicated gene sets and is presented as a normalized enrichment score (NES). […]\nGene expression analysis—RNA was extracted from triplicate samples and RNA libraries were prepared for sequencing by NEBNext Ultra RNA Library Prep Kit for Illumina (New England BioLabs, Ipswich, Mass.), including the removal of large and small RNA, synthesis of cDNA, and construction of cDNA libraries. […] Libraries were sequenced using Illumina HiSeq 2500, with paired-end 100 bp reads, Paired-end reads were aligned to UCSC human transcriptome 19 (hg19) using TopHat (Bowtie v2.0.9). Alignment quality and read distribute was assessed via SAMtools (v0.1.19) (Li et al., 2009). […] RNA sequencing data have been deposited in the NCBI Sequence Read Archive under accession number: PRJNA281613, […]"}, "[4]": {"system": "T47D cells", "test": "The glucose/galactose drug screen", "conditions": "for relative viability change of cells grown in glucose versus galactose: 10 mM Glucose or Galactose, Selleck anti cancer and natural product libraries"}},
  "note": "“Also recorded” adds a separate entry of the source.",
  "data": [
    {"smiles": "CC1(C)CCC(c2ccc(Cl)cc2)=C(CN2CCN(c3ccc(C(=O)NS(=O)(=O)c4ccc(N[C@H](CCN5CCOCC5)CSc5ccccc5)c(S(=O)(=O)C(F)(F)F)c4)cc3)CC2)C1", "note": "[ABT-263, navitoclax]", "values": [
      {"measurement": "sensitivity of proteasome inhibitor resistant cancer cells vs sensitive counterpart cells", "setting": "[1]", "value": "highly sensitive"},
      {"measurement": "growth inhibition of T47D cells with reduced level of PSMD2 vs control T47D cells", "setting": "[1]", "value": "selectively inhibits growth"},
      {"measurement": "sensitivity of PSMD2 KD cells versus control cells (cell viability)", "setting": "[2]", "value": "more sensitive; also recorded: not sufficient, however, to induce a profound sensitization"}
    ]},
    {"smiles": "CC(C)C[C@H](NC(=O)[C@H](Cc1ccccc1)NC(=O)c1cnccn1)B(O)O", "note": "[bortezomib]", "values": [
      {"measurement": "transcriptional response", "setting": "[3]", "value": "sharp increase in stress-response transcripts"},
      {"measurement": "relative viability change of cells grown in glucose versus galactose", "setting": "[4]", "value": "strongest hits in this screen"},
      {"measurement": "sensitivity of PSMD2 KD cells versus control cells (cell viability)", "setting": "[2]", "value": "increase in resistance"},
      {"measurement": "increase in the EC90 on combining the Lo19S and Hi-OXPHOS states", "setting": "[2]; T47D, PSMD2 suppression plus galactose medium", "value": 50, "unit": "fold"},
      {"measurement": "increase of proliferation inhibition EC50 on inducing the Lo19S state", "setting": "[2]; T47D, transient PSMD2 suppression versus control", "value": "~4", "unit": "fold"}
    ]},
    {"smiles": "CN(NC(=O)CC(=O)NN(C)C(=S)c1ccccc1)C(=S)c1ccccc1", "note": "[elesclomol]", "values": [
      {"measurement": "sensitivity of proteasome inhibitor resistant cancer cells vs sensitive counterpart cells", "setting": "[1]", "value": "highly sensitive"},
      {"measurement": "growth inhibition of T47D cells with reduced level of PSMD2 vs control T47D cells", "setting": "[1]", "value": "selectively inhibit growth"},
      {"measurement": "relative viability change of cells grown in glucose versus galactose", "setting": "[4]", "value": "cells that respire are predominantly sensitive; also recorded: preferentially targeted respiring cells; also recorded: more potent in cells in the Hi-OXPHOS state"},
      {"measurement": "number of concentrations at which respiring cells were preferentially targeted", "setting": "[4]; galactose versus glucose", "value": 5, "unit": "concentrations"}
    ]}
  ]
}
